Measured values as given in ChEMBL document CHEMBL1201862, “PubChem BioAssay data set” (2004).
Active and inactive are the calls of the source. Rule as the data show it, for most assays here: actives have a measured EC50 and inactives only a lower limit.

What was measured:
[1] = biological target: T1, Mannose-6-phosphate isomerase (Homo sapiens, UniProt P34949); assay: MPI inhibition at elevated mannose 6-phosphate – biochemical, fluorescence intensity, high mannose 6-phosphate, primary screen (AID 1220)
T1 sequence (P34949 whole entry): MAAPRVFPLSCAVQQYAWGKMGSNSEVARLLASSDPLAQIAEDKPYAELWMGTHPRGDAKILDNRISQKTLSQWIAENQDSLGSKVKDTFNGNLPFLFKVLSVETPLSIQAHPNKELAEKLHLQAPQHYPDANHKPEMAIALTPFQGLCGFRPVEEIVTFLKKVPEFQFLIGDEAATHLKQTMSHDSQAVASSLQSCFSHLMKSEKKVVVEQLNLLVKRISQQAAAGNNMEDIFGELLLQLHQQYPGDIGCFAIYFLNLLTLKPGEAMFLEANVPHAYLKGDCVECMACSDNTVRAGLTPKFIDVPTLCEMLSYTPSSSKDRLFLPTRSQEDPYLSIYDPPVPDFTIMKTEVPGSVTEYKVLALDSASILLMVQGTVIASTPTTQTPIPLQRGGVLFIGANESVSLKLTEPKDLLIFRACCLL

[2] = luciferase reporter signal suppression in cells – H4 neuroglioma cells, luminescence, dose response (AID 1990); type: functional, cell-based
[3] = biological target: T2, Protein RecA (Mycobacterium tuberculosis, UniProt P9WHJ3); assay: Fluorescence Cell-Free Homogeneous Dose Retest to Identify Inhibitors of RecA-Intein Splicing Activity. [Related pubchem assays (depositor defined):AID2097, AID2223, AID489010, AID492950]; type: functional
T2 sequence (P9WHJ3 whole entry): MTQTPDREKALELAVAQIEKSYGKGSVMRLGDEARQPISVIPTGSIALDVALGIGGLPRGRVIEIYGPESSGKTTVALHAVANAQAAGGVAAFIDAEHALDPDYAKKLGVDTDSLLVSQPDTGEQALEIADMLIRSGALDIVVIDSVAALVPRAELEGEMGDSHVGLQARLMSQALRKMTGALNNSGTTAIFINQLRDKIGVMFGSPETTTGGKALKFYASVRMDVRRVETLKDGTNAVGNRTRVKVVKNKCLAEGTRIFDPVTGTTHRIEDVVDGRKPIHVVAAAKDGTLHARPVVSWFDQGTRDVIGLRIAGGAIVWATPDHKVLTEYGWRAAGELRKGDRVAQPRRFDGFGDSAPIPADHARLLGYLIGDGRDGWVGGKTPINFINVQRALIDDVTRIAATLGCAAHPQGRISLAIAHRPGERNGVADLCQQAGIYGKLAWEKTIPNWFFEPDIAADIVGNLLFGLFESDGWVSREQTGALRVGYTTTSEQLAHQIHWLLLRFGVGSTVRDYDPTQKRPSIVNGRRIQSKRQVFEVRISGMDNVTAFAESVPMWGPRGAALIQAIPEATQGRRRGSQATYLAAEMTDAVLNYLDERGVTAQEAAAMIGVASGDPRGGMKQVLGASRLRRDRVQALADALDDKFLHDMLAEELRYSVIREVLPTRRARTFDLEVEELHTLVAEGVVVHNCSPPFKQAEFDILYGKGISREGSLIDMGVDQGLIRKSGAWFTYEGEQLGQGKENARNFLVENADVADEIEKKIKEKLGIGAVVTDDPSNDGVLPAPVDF

[4] = biological target: T3, RNA-binding protein pos-1 (Caenorhabditis elegans, UniProt G5EF15); assay: disruptors of C. elegans POS-1 RNA interaction – biochemical, fluorescence polarization, dose response (AID 1964);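 also: purified POS-1 fused to maltose binding protein made in E. coli; potency of compounds blocking POS-1 binding to fluorescent RNA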
T3 sequence (G5EF15 whole entry): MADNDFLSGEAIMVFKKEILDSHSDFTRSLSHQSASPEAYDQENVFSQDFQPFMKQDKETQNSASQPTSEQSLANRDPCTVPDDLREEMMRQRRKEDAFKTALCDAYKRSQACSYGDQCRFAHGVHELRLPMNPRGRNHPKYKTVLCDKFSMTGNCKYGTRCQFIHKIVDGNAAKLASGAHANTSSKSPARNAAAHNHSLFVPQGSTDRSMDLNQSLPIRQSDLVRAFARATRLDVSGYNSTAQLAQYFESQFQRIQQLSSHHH

[5] = Trypanosoma cruzi growth suppression in host cells – NIH3T3 host cells, beta-gal luminescence, confirmation (AID 2044); type: functional, cell-based;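 also: intracellular parasites grown in NIH/3T3 mouse fibroblasts as host cells; luminescent beta-galactosidase reporter signal from transgenic T. cruzi replicating inside host cells; inhibitors lower the luminescence signal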
[6] = cells
[7] = alpha-synuclein stem-loop luciferase translation blockers – H4 neuroglioma cells, luminescence, confirmation (AID 1988); type: functional, cell-based
[8] = NIH3T3 cell viability loss – ATP luminescence, mouse fibroblasts, counter-screen, dose response (AID 2010); type: functional, cell-based;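 also: cells exposed to compound for about 90 hours before reading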
[9] = biological target: T4, Replicative DNA helicase DnaB (Mycobacterium tuberculosis, UniProt P9WMR3); assay: DnaB intein splicing inhibitors, dose response, biochemical, cell-free fluorescence (AID 449749); type: functional
T4 sequence (P9WMR3 whole entry): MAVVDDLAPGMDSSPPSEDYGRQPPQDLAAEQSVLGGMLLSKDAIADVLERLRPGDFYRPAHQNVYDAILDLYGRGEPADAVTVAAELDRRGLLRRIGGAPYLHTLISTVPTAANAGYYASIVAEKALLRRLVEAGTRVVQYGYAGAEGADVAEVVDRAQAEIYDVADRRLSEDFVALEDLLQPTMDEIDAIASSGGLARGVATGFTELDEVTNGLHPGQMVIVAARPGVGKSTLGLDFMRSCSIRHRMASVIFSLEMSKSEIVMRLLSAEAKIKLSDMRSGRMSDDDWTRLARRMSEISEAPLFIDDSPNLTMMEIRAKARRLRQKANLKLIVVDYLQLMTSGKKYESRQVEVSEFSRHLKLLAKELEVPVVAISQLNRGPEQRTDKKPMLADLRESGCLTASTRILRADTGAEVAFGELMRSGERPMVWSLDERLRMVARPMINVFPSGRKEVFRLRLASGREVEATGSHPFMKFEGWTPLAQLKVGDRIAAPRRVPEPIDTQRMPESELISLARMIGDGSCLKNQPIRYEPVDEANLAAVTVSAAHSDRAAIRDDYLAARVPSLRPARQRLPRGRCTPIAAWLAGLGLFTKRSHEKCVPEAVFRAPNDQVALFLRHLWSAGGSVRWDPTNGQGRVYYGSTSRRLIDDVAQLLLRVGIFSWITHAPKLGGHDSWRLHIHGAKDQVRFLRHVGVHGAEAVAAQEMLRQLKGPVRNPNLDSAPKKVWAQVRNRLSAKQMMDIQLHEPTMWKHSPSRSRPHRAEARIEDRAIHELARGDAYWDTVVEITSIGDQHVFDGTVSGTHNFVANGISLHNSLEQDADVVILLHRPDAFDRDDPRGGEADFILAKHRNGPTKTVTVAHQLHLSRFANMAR

[10] = biological target: T5, Zinc finger protein mex-5 (Caenorhabditis elegans, UniProt Q9XUB2); assay: potency of MEX-5 RNA-binding blockers – biochemical, C. elegans, fluorescence polarization, dose response (AID 1960)
T5 sequence (Q9XUB2 whole entry): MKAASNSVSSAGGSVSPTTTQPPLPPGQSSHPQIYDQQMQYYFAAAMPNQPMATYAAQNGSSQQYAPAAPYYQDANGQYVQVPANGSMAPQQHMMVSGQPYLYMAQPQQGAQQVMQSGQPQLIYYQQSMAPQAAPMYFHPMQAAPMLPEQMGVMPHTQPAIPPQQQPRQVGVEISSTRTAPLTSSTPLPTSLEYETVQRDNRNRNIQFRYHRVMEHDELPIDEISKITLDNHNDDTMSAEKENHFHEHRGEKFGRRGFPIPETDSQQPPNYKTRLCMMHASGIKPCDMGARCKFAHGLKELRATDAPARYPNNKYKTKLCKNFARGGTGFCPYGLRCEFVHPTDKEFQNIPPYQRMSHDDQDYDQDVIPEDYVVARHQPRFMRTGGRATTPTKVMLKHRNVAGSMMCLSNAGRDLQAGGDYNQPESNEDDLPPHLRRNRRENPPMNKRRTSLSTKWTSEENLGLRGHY

[11] = biological target: Induced myeloid leukemia cell differentiation protein Mcl-1 (Homo sapiens, UniProt Q07820); type: functional
[12] = Luminescence Cell-Based Dose Response HTS to Identify Inhibitors of 5'UTR Stem-Loop Driven Prion Protein mRNA Translation in H4 Neuroglioblastoma Cells. [Related pubchem assays: 1827 (Project Summary), 1813 (Primary HTS)]; type: functional
[13] = HEK-293T viability loss, compound-treated – cell-based, uHTS hits, cytotoxicity control for B/T-cell NF-kB inhibitor project, dose response (AID 489019); type: functional;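 also: IC50 reflects cytotoxicity as loss of cell viability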
[14] = tested on: BJ; assay: cells; type: functional, cell-based; conditions: Homo sapiens
[15] = tested on: Jurkat; assay: blockers of NF-kB activation in T cells – Jurkat, luciferase reporter, luminescence, B- and T-cell, dose response (AID 489004); type: functional, cell-based; conditions: Homo sapiens;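 also: NF-kB luciferase reporter Jurkat cells stimulated with PMA plus ionomycin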
[16] = DRD fibroblast viability loss – cell-based, non-viral oncogenic, luminescence, dose response (AID 1934); type: functional; conditions: Homo sapiens
[17] = biological target: T6, Long-chain-fatty-acid--AMP ligase FadD28 (Mycobacterium tuberculosis, UniProt P9WQ59); assay: Fluorescence polarization aasay to screen for inhibitors that compete for the binding of FadD28 to a bisubstrate Measured in Biochemical System Using Plate Reader - 2147-01_Inhibitor_Dose_CherryPick_Activity.; type: functional, Mycobacterium tuberculosis H37Rv
T6 sequence (P9WQ59 whole entry): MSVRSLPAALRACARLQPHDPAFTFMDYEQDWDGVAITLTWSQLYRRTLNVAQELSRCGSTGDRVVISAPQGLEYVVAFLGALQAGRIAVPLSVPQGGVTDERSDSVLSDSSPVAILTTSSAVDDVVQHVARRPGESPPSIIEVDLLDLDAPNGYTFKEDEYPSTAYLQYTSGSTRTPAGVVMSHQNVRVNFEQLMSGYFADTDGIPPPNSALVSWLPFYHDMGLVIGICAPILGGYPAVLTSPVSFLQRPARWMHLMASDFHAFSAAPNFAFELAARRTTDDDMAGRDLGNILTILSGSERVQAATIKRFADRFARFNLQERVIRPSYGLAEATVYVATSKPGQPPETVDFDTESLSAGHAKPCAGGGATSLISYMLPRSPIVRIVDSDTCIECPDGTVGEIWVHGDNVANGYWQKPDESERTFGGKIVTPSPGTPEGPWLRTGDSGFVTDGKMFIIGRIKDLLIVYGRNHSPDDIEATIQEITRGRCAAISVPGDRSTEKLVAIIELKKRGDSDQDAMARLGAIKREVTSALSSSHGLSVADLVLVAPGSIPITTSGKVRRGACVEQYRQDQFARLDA

[18] = tested on: BJ; assay: BJ-TERT-LT-ST fibroblast viability loss – cell-based, RAS-independent, luminescence, dose response (AID 1935); type: functional; conditions: Homo sapiens;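 also: BJ fibroblasts immortalized with TERT plus LT and ST oncogenes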
[19] = biological target: Nonstructural protein 1 (Influenza A virus, UniProt Q194T2); type: functional, Influenza A virus (A/California/07/2009(H1N1))
[20] = tested on: Streptococcus; assay: GAS UMAA2166 growth inhibition – luminescence, BacTiterGlo, counter-screen for streptokinase expression inhibitor project, dose response (AID 1915); type: functional, organism-based;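 also: potency for reduction of bacterial viability or growth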
[21] = NIH-3T3 fibroblast cytotoxicity, dose response, cytotoxicity control, cell-based, fluorescence, Alamar Blue, secondary assay (AID 2327); type: functional;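 also: NIH-3T3 mouse fibroblasts cultured with fluconazole at 8 µg/mL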
[22] = biological target: T7, Streptokinase A (Streptococcus pyogenes serotype M1, UniProt P10520); assay: viability-normalized secreted streptokinase activity reduction – plasminogen activation absorbance, OD405, dose response (AID 1914); type: functional, Streptococcus pyogenes M1 GAS;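 also: secreted streptokinase activity via plasminogen activation per viability signal from cell pellet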
T7 sequence (P10520 whole entry): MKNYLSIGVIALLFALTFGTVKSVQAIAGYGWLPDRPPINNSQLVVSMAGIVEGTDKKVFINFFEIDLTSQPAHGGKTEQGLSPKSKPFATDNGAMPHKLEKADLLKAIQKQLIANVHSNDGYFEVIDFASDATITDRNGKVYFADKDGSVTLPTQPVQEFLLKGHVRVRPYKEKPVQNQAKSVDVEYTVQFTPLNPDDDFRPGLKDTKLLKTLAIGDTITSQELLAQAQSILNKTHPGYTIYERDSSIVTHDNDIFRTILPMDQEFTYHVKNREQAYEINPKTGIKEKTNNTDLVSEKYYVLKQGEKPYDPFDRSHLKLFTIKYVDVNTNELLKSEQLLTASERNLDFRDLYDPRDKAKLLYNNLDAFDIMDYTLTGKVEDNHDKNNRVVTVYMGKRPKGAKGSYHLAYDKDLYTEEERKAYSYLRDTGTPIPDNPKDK

[23] = microbe, parasite or virus in culture; type: functional; conditions: Mycobacterium tuberculosis
[24] = tested on: BJ; assay: BJ-TERT fibroblast viability loss – cell-based, RAS-independent, luminescence, dose response (AID 1933); type: functional; conditions: Homo sapiens
[25] = tested on: Streptococcus sp. 'group A'; assay: Streptococcus pyogenes SK(-)GAS viability under kanamycin – luminescence, BacTiterGlo, confirmation, counter-screen for streptokinase expression inhibitor project, dose response (AID 1900); type: functional, organism-based
[26] = fluconazole-exposed Candida albicans growth modulators – fluorescence, retest, confirmation (AID 2467); type: functional, cell-based

Induced myeloid leukemia cell differentiation protein Mcl-1, sequence (Q07820 whole entry): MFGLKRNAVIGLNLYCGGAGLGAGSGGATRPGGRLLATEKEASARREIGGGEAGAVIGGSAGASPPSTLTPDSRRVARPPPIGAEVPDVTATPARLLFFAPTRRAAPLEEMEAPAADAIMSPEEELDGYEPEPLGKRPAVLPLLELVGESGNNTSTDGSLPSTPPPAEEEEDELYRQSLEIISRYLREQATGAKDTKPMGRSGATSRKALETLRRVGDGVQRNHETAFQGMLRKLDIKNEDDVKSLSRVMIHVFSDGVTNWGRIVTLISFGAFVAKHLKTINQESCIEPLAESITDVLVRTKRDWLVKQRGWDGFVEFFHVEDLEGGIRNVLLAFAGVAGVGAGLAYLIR
Nonstructural protein 1, sequence (Q194T2 whole entry): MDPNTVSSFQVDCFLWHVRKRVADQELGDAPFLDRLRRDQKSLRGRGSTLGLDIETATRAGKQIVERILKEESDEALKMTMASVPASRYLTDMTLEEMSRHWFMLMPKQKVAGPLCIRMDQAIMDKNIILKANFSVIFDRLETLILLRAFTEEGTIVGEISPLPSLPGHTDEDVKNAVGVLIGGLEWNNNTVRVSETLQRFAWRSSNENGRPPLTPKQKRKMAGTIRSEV

## CN1C=C/C(=C\c2cc[n+](C)c3ccccc23)c2ccccc21
[1]
  IC50: > 50 µM (not active)
[2]
  EC50: 9.17 µM (active)
[3]
  EC50: 1.48 µM (active)
[4]
  EC50: 65.7 µM (active)
[5]
  EC50: < 100 nM (active)
[6]
  EC50: < 4 nM (active)
[7]
  EC50: 6.93 µM (active)
[8]
  EC50: > 60 µM (not active)
[9]
  AC50: 121 µM (active)
[10]
  EC50: 40 µM (inconclusive)
[11]
  IC50: 13 µM (active)
[12]
  EC50: 8.89 µM (active)

## C[n+]1c(-c2ccccc2)c2cc(N)ccc2c2ccc(N)cc21
[2]
  EC50: > 120 µM (not active)
[13]
  IC50: > 80 µM (inactive)
[14]
  EC50: 6.25 µM (active)
[5]
  EC50: < 100 nM (active)
[15]
  IC50: > 80 µM (inactive)
[16]
  EC50: 7.32 µM (active)
[17]
  AC50: > 100 µM (inactive)
[18]
  EC50: 10.5 µM (active)
[6]
  EC50: 11 nM (active)
[19]
  IC50: 30.5 µM (active)
[20]
  EC50: 5.67 µM (active)
[7]
  EC50: 9.48 µM (active)
[21]
  EC50: > 160 µM (inconclusive)
[22]
  EC50: > 150 µM (not active)
[8]
  EC50: 12.3 µM (active)
[23]
  CC50: > 40 µM (active)
[12]
  EC50: 20.1 µM (active)
[24]
  EC50: 3.61 µM (active)
[25]
  EC50: 1.29 µM (active)
[26]
  EC50: 121 nM (active)
